# Test results published in patent publication US20040176285A1, “Tip39 polypeptides” (priority 2001, published 2004).
# Where no end group is shown, it is not given here.
# Assays:
# PTH1R [1] = target: T1, PTH1R (Homo sapiens, UniProt Q03431); assay: Inhibition of agonist-stimulated cAMP accumulation in HKrk-B7 cells; format: cell-based; set-up: expressed in transfected cells; settings: agonist PTH(1-34), PTHrP(1-36) or PTHrP(1-20)/TIP(23-39) at 1 nM (about half-maximal)
# T1 sequence (Q03431 27-593): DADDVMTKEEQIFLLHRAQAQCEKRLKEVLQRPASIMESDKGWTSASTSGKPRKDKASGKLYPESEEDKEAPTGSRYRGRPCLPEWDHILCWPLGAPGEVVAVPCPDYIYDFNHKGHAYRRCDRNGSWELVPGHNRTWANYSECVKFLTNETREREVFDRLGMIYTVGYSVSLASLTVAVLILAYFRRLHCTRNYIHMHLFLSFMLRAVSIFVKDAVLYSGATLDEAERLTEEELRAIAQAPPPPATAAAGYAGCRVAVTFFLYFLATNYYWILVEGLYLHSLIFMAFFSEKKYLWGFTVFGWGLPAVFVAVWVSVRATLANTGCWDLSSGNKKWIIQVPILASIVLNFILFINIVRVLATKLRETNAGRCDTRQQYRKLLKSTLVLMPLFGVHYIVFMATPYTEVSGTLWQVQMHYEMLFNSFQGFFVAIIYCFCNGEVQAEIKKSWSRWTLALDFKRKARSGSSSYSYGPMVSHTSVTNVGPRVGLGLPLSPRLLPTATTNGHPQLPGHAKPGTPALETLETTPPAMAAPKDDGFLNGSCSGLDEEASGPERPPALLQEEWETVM
# Excerpt: (§1) FIG. 4A-4F. Inhibition of agonist-stimulated cAMP accumulation in HKrk-B7 cells (FIG. 4A-4C) or SaOS-2 cells (FIG. 4D-4F). […] Data are expressed as % of half-maximal cAMP accumulation and represent the results (mean±SE) of at least three independent experiments.
# (§2) Na^125I (specific activity: 2,000 Ci/mmol) was purchased from DuPont/NEN, Boston, Mass. Fetal bovine serum, 3-isobutyl-1-methyl-xanthine (IBMX), and BSA were from Sigma, St. Louis, Mo., and trifluoroacetic acid (TFA) was from Pierce, Rockford, Ill. Radiolabeled rPTH(1-34) and PTHrP(1-36) were prepared by the chloramine-T method, followed by HPLC purification using a 30-50% ACN/0.1% TFA gradient over 30 minutes; radioreceptor assays were performed in 24-well plates as previously described (Gardella, T. J., et al., J. Biol. Chem. 271:19888-19893 (1996); Fukayama, S. et al., Endocrinology 134:1851-1858 (1994)). […] The entire lysate was counted for γ-irradiation. Specific binding was determined after subtracting radioactivity bound in the presence of maximal concentrations of unlabeled competing peptide (10^−6 M). […] Data were analyzed and graphically illustrated using the graph-pad prism software package.
# endogenous PTH1R = target: T2, endogenous PTH1R (Homo sapiens, UniProt Q03431); assay: Ligand-stimulated cAMP accumulation in SaOS-2 cells; format: cell-based; settings: SaOS-2 cells
# T2 construct: SaOS-2 cells expressing the wild-type PTH1R endogenously; endogenous in cells; host or cells: SaOS-2 human osteosarcoma cells
# T2 sequence (Q03431 27-593): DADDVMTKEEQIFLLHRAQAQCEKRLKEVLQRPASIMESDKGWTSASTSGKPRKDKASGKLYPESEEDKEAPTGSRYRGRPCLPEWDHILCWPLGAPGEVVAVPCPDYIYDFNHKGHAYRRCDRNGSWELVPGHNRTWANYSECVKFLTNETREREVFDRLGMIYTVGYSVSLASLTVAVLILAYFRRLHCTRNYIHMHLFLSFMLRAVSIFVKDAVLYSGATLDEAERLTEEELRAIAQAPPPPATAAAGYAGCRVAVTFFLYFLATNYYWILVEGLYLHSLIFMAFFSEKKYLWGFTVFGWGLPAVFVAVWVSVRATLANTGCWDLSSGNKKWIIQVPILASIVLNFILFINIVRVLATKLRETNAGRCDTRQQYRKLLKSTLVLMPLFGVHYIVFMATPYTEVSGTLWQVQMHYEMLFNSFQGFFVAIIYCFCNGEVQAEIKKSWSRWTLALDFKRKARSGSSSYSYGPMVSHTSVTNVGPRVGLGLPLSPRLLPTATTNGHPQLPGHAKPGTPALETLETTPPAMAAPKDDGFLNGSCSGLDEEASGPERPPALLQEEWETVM
# Procedure: (§3) DMEM, Trypsin/EDTA, and penicillin G/streptomycin and horse serum were from Gibco/BRL, Life Technologies, Gaithersburg, Md. LLC-PK, expressing the recombinant human PTH1R (HKrk-B7 cells) and SaOS-2 cells expressing the wild-type PTH1R endogenously were cultured in DMEM supplemented with 10% heat-inactivated fetal bovine serum, 100 U/ml penicillin, 100 μg/ml streptomycin, as previously described (Gardella, T. J., et al., J. Biol. Chem. 271:19888-19893 (1996); Fukayama, S., et al., Endocrinology 134:1851-1858 (1994)); both cell lines were maintained in a humidified atmosphere containing 95% air and 5% CO2. After seeding, medium was replaced daily, until cells were used for radioligand binding or cAMP accumulation assays.
# as §2, with “(1994)). In brief, each well (final volume 500 μl) contained binding buffer (BB; 50 mM Tris-HCl (pH 7.7), 100 mM NaCl, 5 mM KCl, 2 mM CaCl2, 5% heat-inactivated horse serum, and 0.5% heat-inactivated fetal bovine serum), the ^125I-labeled PTH or PTHrP analog (100,000 to 200,000 cpm) was incubated in the absence or presence of increasing concentrations of unlabeled peptides.” for “(1994)).”, “package. […]” for “package.”
# human PTH2 receptor = target: T3, human PTH2 receptor (Homo sapiens, UniProt P49190); assay: Ligand-stimulated cAMP accumulation in hPR2-20 LLCPK1 cells; format: cell-based
# T3 construct: expressed in transfected cells
# PTH1R [2] = target: T1, PTH1R; assay: Ligand-stimulated cAMP accumulation in HKrk-B7 cells; format: cell-based; set-up: expressed in transfected cells; settings: HKrk-B7 cells
# Procedure: as §3
# Na^125I (specific activity: 2,000 Ci/mmol) was purchased from DuPont/NEN, Boston, Mass. Fetal bovine serum, 3-isobutyl-1-methyl-xanthine (IBMX), and BSA were from Sigma, St. Louis, Mo., and trifluoroacetic acid (TFA) was from Pierce, Rockford, Ill. Radiolabeled rPTH(1-34) and PTHrP(1-36) were prepared by the chloramine-T method, followed by HPLC purification using a 30-50% ACN/0.1% TFA gradient over 30 minutes; radioreceptor assays were performed in 24-well plates as previously described (Gardella, T. J., et al., J. Biol. Chem. 271:19888-19893 (1996); Fukayama, S. et al., Endocrinology 134:1851-1858 (1994)). In brief, each well (final volume 500 μl) contained binding buffer (BB; 50 mM Tris-HCl (pH 7.7), 100 mM NaCl, 5 mM KCl, 2 mM CaCl2, 5% heat-inactivated horse serum, and 0.5% heat-inactivated fetal bovine serum), the ^125I-labeled PTH or PTHrP analog (100,000 to 200,000 cpm) was incubated in the absence or presence of increasing concentrations of unlabeled peptides. After 4 h at 16° C., buffer was completely removed, the cells were rinsed with cold BB and lysed with 1 M NaOH. The entire lysate was counted for γ-irradiation. Specific binding was determined after subtracting radioactivity bound in the presence of maximal concentrations of unlabeled competing peptide (10^−6 M). Agonist-dependent stimulation of cAMP accumulation by HKrk-B7 and SaOS-2 cells (48-well plates; stimulation at room temperature for 45 minutes) and the subsequent measurement of cAMP by radioimmunoassay was performed as previously described (Gardella, T. J., et al., J. Biol. Chem. 271:19888-19893 (1996); Bergwitz, C., et al., Endocrinology 139:723-732 (1998)). Data were analyzed and graphically illustrated using the graph-pad prism software package.
# The values for EC50 and Vmax (mean±SE) are derived from at least three independent experiments.
# PTH1R [3] = target: T1, PTH1R; assay: Inhibition of agonist-stimulated cAMP accumulation in SaOS-2 cells; format: cell-based; set-up: expressed in transfected cells; settings: SaOS-2 cells (stated for both cell lines); agonists 0.15-0.3 nM
# Excerpt: as §1, §2
# PTH1R [4] = target: T1, PTH1R; settings: cited from earlier work
# T3 sequence (P49190 25-550): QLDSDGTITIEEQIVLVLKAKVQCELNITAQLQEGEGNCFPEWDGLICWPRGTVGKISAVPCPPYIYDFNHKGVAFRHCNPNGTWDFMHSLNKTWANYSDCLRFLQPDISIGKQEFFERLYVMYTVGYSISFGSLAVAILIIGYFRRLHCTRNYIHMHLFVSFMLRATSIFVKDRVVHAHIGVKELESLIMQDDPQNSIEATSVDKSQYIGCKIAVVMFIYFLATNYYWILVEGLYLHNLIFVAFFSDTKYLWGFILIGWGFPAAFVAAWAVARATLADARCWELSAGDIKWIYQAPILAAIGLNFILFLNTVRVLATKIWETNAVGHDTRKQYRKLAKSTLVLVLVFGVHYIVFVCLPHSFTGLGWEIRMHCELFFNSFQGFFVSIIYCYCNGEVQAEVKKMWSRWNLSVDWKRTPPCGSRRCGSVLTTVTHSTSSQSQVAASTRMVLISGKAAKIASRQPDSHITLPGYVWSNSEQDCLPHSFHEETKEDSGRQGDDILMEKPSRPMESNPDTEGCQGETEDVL
compound,measurement,setting,value
"CC[C@H](C)[C@H](NC(=O)[C@H](CC(C)C)NC(=O)[C@H](Cc1c[nH]cn1)NC(=O)[C@H](Cc1c[nH]cn1)NC(=O)[C@H](CC(C)C)NC(=O)[C@H](Cc1c[nH]c2ccccc12)NC(=O)[C@H](Cc1ccccc1)NC(=O)[C@H](CCCNC(=N)N)NC(=O)[C@H](CCCNC(=N)N)NC(=O)[C@H](CCCNC(=N)N)NC(=O)[C@H](CC(C)C)NC(=O)[C@H](CC(=O)O)NC(=O)[C@H](CCC(N)=O)NC(=O)[C@@H](NC(=O)[C@H](CO)NC(=O)[C@H](CCCCN)NC(=O)[C@@H](Cc1c[nH]c2ccccc12)NC(=O)[C@H](CC(C)C)NC(=O)[C@H](CC(=O)O)NC(=O)[C@H](Cc1c[nH]cn1)NC(=O)[C@H](CC(C)C)NC(=O)[C@@H](N)CC(C)C)[C@@H](C)CC)C(=O)N[C@@H](C)C(=O)N[C@@H](CCC(=O)O)C(=O)N[C@H](C(=O)N[C@@H](Cc1c[nH]cn1)C(=O)N[C@H](C(=O)N[C@@H](C)C(=O)N[C@@H](CCC(=O)O)C(=O)N[C@@H](Cc1ccc(O)cc1)C(N)=O)[C@@H](C)O)[C@@H](C)CC [PTHrP(7-36), [Leu^11, D-Trp^12, Trp^23, Tyr^36]PTHrP(7-36)amide]",IC50,PTH1R [1],~100 nM
"CSCC[C@H](NC(=O)[C@H](Cc1ccc(O)cc1)NC(=O)[C@H](CO)NC(=O)[C@H](CC(N)=O)NC(=O)[C@H](CC(C)C)NC(=O)[C@H](Cc1c[nH]c2ccccc12)NC(=O)[C@H](Cc1c[nH]cn1)NC(=O)[C@H](CCCNC(=N)N)NC(=O)[C@H](CCCNC(=N)N)NC(=O)[C@H](CCC(=O)O)NC(=O)[C@H](CC(C)C)NC(=O)[C@H](C)NC(=O)[C@H](C)NC(=O)[C@H](CC(C)C)NC(=O)[C@H](CC(C)C)NC(=O)[C@H](CCCNC(=N)N)NC(=O)[C@H](C)NC(=O)[C@H](CCCNC(=N)N)NC(=O)[C@H](CCC(=O)O)NC(=O)[C@H](CCCNC(=N)N)NC(=O)[C@H](Cc1ccccc1)NC(=O)[C@H](C)NC(=O)[C@H](C)NC(=O)[C@H](CC(=O)O)NC(=O)[C@H](CC(=O)O)NC(=O)[C@H](C)NC(=O)[C@H](CC(C)C)NC(=O)[C@H](C)NC(=O)[C@H](CC(C)C)NC(=O)[C@@H](N)CO)C(=O)N[C@@H](Cc1c[nH]cn1)C(=O)N[C@@H](CCCCN)C(=O)N[C@@H](CC(C)C)C(=O)N[C@@H](CC(C)C)C(=O)N[C@H](C(=O)N[C@@H](CC(C)C)C(=O)N[C@@H](CC(=O)O)C(=O)N[C@@H](C)C(=O)N1CCC[C@H]1C(N)=O)C(C)C [TIP(1-39), reference compound]",stimulation of cAMP accumulation (in words),endogenous PTH1R,failed to stimulate cAMP accumulation
same,maximum cAMP accumulation,human PTH2 receptor,136.5±4.9 pmol/well
same,stimulation of cAMP accumulation at the PTH1R (in words),PTH1R [2],failed to stimulate cAMP accumulation
same,inhibition of agonist actions (in words),PTH1R [3],inhibited the actions of the three agonists
"PTH(15-34)amide (LNSMERVEWLRKKLQDVHNF; not fully specified (C-terminus); UniProt P01270 46-65, looked up, fragment)",affinity for the PTH1R (in words),PTH1R [4],very low (micromolar) affinity
